From article PMC8160210, “Single tryptophan Y160W mutant of homooligomeric E. coli purine nucleoside phosphorylase implies that dimers forming the hexamer are functionally not equivalent” (Scientific Reports, 2021)
Read-outs that look alike come from different tables or passages of the source.

Assays:
[1] = molecular target: T1, WT E. coli PNP (Escherichia coli, UniProt P0ABP8); assay: Inhibition of m^7Guo phosphorolysis; type: biochemical; conditions: competitive inhibition Eq. (3), m^7Guo as variable substrate, 50 mM phosphate, pH 7.0, 25 °C
T1 construct: made in house
T1 sequence (P0ABP8 2-239 limits assumed): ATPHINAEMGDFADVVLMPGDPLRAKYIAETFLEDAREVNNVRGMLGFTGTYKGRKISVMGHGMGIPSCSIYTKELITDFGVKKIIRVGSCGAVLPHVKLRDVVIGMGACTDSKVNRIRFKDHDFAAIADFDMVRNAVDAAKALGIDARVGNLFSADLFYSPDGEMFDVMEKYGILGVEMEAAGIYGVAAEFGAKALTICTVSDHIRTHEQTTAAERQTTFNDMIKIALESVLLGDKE
Method: All activity measurements and kinetic studies were done in 50 mM Hepes/HCl buffer pH 7.0 at 25 °C as previously described for the WT E. coli PNP and its active-site mutants, using direct spectrophotometric assay for adenosine, guanosine and 7-methylguanosine as substrates, and a coupled assay with xanthine oxidase in the case of inosine[13],[28],[29]. Activity measurements were performed for each protein sample, before and after each experiment as a control of the state of the protein.
To determine inhibition model and inhibition constant for formycin A, rate of phosphorolysis with m^7Guo as a variable substrate, at constant, 50 mM, phosphate concentration, was registered in the absence of the inhibitor and in the presence of two different concentrations of formycin. A global fitting to the whole data set was performed, using various models (competitive, uncompetitive, noncompetitive, mixed). As expected for the substrate analogue, competitive model described the data sufficiently well:3 v0c0=Vmax1c0/c0+KM1+ci/Ki where ci is inhibitor concentration. Kinetic data were analysed using the GraphPad Prism program (Intuitive Software for Science, San Diego, CA, USA).

[2] = molecular target: T2, Y160W PNP mutant (Escherichia coli, UniProt P0ABP8, Y161W); conditions: phosphate as variable substrate, 0.4 mM m^7Guo, allostery Eq. (2)
T2 sequence (P0ABP8 2-239 Y161W): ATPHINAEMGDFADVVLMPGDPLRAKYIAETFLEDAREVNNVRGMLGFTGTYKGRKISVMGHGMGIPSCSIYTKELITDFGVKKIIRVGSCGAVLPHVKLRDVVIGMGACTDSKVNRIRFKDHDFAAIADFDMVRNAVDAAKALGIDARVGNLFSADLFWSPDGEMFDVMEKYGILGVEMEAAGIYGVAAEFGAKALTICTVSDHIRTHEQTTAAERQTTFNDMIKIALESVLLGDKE
Method: Activity measurements were performed for each protein sample, before and after each experiment as a control of the state of the protein.
The classical Michaelis–Menten equation was fitted to the kinetic curves (i.e. initial rate of the reaction, v0, vs. initial substrate concentration, c0):1 v0c0=Vmax1c0/c0+KM1
Coefficients a and b express the degree of cooperation between the subunits in a dimer, while constants KM1 and Vmax1 characterize the active sites of the enzyme when the neighbouring site is free.
A more complex model was used if there was a statistically significant decrease in the residual sum of squares as judged by the F test at 95% confidence level.

[3] = molecular target: T1, WT E. coli PNP; parameters: method as in PMID 30337572; conditions: phosphate as variable substrate, 250 μM m^7Guo, allostery Eq. (2), cited from earlier work
[4] = molecular target: T2, Y160W PNP mutant; assay: Fluorescence titrations with phosphate; parameters: made in house; host or cells: E. coli DH5α-T1; species or system E. coli; conditions: three-binding-site model, 25 °C
Method: All experiments were carried out on the Perkin-Elmer LS55 spectrofluorimeter. Fluorescence spectra were registered using in each case (protein or protein–ligand complex) several excitation wavelengths. Differential spectra were calculated by subtracting spectrum of a protein from the spectrum of the appropriate complex. The negative differential fluorescence intensity means that a decrease of fluorescence upon complex formation is observed. Titrations of the enzyme with phosphate were registered using several excitation and observation wavelengths combinations. When selecting specific wavelengths for such a combination, two criteria were used: (1) the overall change in the fluorescence signal and (2) the complexity of the shape of the titration as the analysis of the multi-phasic curves is more explicit than a uni-phasic curve analysis.
Path length for the excitation was 2 mm and for the emission was 5 mm (half of the cuvette dimensions). A continuous stirring was used during titrations. All measurements were performed at 25 °C. […]
Fluorescence intensity of the WT protein is stable over time, but in the case of the Y160W mutant a slight quenching of fluorescence is observed during titration, which typically lasted about 30 min as the time between each point in the titration was 1 min. Furthermore, adding phosphate during titration stabilises the intrinsic fluorescence of the protein. […] Thus corrected binding curves, F^cor([Pi]), are given by the following equation, in which Fn([Pi]) is the fluorescence intensity measured for the phosphate concentration [Pi], and n is the number of a given titration point in the particular titration:4 FncorPi=FnPi+∑m=1naPim
To check its influence on the intrinsic protein fluorescence, titrations with NaCl were performed, giving dependence F(I). […] Titration curves of the WT protein with phosphate were therefore measured up to 100 mM ionic strength of solution, which is enough to observe a plateau. […] Both F^obs([Pi]) and F(I) were corrected for the time dependent fluorescence quenching, according to Eq. (4), prior to the F^bind([Pi]) calculation. […]

SMILES | Ki [1] [µM] | a (cooperativity coefficient, KM2 = aKM1) [2] | b (cooperativity coefficient, Vmax2 = bVmax1) [2] | Km ([2]; pH 7.0, 25 °C) [µM] | Vmax ([2]; pH 7.0, 25 °C) [U/mg] | Km ([3]; pH 7.0, 25 °C) [µM] | Vmax ([3]; pH 7.0, 25 °C) [U/mg] | a (cooperativity coefficient, KM2 = aKM1) [3] | b (cooperativity coefficient, Vmax2 = bVmax1) [3] | Kd ([4]; 50 mM Tris/HCl pH 7.6, read-out: Kd1 ± SD) [µM] | Kd ([4]; 50 mM Tris/HCl pH 7.6, read-out: Kd2 ± SD) [µM] | Kd ([4]; 50 mM Tris/HCl pH 7.6, read-out: Kd3 ± SD) [µM]
Nc1ncnc2c([C@@H]3O[C@H](CO)[C@@H](O)[C@H]3O)[nH]nc12 [FA, Formycin A] | 5.3 ± 0.4 |  |  |  |  |  |  |  |  |  |  | 
O=P(O)(O)O [Pi, Orthophosphate] |  | 390 ± 122 | 0.94 ± 0.05 | 18.7 ± 2.7 | 11.7 ± 0.4 | 15 ± 4 | 10.8 ± 0.7 | 267 ± 232 | 0.76 ± 0.06 | 7 | 200 | 3200
